# Measurements published in paper PMC11156899, “High-throughput screening unveils nitazoxanide as a potent PRRSV inhibitor by targeting NMRAL1” (Nature Communications, 2024).
# Tests used:
# [1] = Cytotoxicity assay (CC50) in MARC-145 cells; assay type: cell-based; conditions: African green monkey, 48 h of exposure, CCK-8
# Description: Control wells contained DMEM with 0.5% DMSO.
# Supplementary Fig. 3: Cytotoxicity and Antiviral Efficacy of NTZ.
# PRRSV capsid protein positive
# (primary antibody SR30, green) and nuclei (DAPI, blue).
# NSP12 = assay: In vitro binding (DSF/CETSA) of NSP12 purified by inclusion bodies; design: species or system PRRSV GSWW-18 strain; conditions: NSP12 purified by IBs, different buffer systems
# Procedure: For DSF, 20 μM purified NSP1α and NSP12 protein from the GSWW-18 strain, as well as NMRAL1 protein (Accession: A0A0D9R9W0) was thoroughly mixed with 20 μM SYPRO Orange (S6650, Thermo) in a buffer containing 10 mM HEPES and 200 mM NaCl at pH 7.20. An equal volume of 100 μM NTZ, dissolved in the same buffer, was added and the mixture was filtered through a 0.22 μm filter. For controls, an equivalent volume of DMSO was used. […] DSF experiments were monitored using the QuantStudio™ 5 Real-Time PCR System (Thermo). Data were analyzed using DSFworld[42].
# 'FT' is the flow-through after passing through the Ni column. 'Ni-200' and 'Ni-500' represent different purification conditions with varying concentrations. 'L2' is the total cell lysate after changing the expression conditions. 'S2' is the supernatant after cell lysis with changed expression conditions. The portions highlighted in red boxes indicate the target protein. […]
# constant (KD) between Nsp1α and TIZ is lower than that of NMRAL1. We observe that […]
# attempting different systems (Fig. R5 e-h). Although SPR confirms the interaction […]
# possibly be attributed to the abnormal protein conformation of NSP12 purified by IBs. […]
# (b) The KD value of Nsp1α determined using the Kinetics fit model. […]
# (I) The KD value of Nsp12 determined using the Kinetics fit model. […]
# NMRAL1 = NMRAL1 (Chlorocebus sabaeus, UniProt A0A0D9R9W0); assay: NMRAL1 dimerization (western blot, in cells and purified protein); assay type: biochemical; conditions: in cells and with purified NMRAL1 protein
# Description: In these proteins, we separately purified the proteins of NSP1α, NSP12, and NMRAL1. […] We speculate that NMRAL1 may be the primary target of NTZ action. […] Previous studies have shown NMRAL1 inhibits retinoic acid-inducible gene I (RIG-I) mediated antiviral responses. NTZ has been reported to activate the RIG-I pathway and induce an increase in IFN-β[25], which our findings corroborate (Fig. 6e–j). […] Differential Scanning Fluorimetry (DSF) confirmed NTZ binding to NMRAL1 (Fig. 6n). […] Molecular dynamics (MD) simulations were conducted for a more accurate understanding of TIZ’s role within the NMRAL1 dimer. Fluctuations or reductions in root-mean-square deviation (RMSD), Rg, and hydrogen bond count data after 80 ns indicated significant changes in the NMRAL1 system (Supplementary Fig. 12 a, b, d). […] TIZ primarily interacted with A chain’s LYS41, LYS42, LYS45, and B chain’s LYS92, LYS89, LYS95, GLN93, LEU96, LYS118, and ARG103, with B chain’s LYS92 and LYS89 and A chain’s LYS41 being the hotspots with binding energies greater than −1 kcal/mol (Supplementary Fig. 13). […]
# For Western blot analysis, protein samples were heated at 95 °C for 8 min and then cooled to room temperature. […] The protein signals were detected using a chemiluminescent substrate (34577, Thermo) and visualized using the Gel Doc XR+ molecular imager (Bio-Rad).
# Chain of NMRAL1 (A0A0D9R9W0 entry or part of it): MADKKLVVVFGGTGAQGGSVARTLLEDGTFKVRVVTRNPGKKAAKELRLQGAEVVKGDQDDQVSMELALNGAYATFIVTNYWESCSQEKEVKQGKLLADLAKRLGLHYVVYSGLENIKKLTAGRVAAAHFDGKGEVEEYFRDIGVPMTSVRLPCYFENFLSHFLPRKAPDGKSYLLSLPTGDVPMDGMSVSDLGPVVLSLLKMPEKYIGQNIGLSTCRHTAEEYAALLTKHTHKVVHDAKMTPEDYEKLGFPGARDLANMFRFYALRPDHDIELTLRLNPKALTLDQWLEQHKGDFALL
structure (smiles),measurement,setting,value
CC(=O)Oc1ccccc1C(=O)Nc1ncc([N+](=O)[O-])s1 [Nitazoxanide],CC50 at 48 h,[1],~44 µM
same,binding activity with NSP12 in vitro,NSP12,did not exhibit binding activity
same,NMRAL1 dimer formation,NMRAL1,increased NMRAL1 dimer formation
